Measurements from patent US10076505B2, “Inhalation formulations of Treprostinil” (priority 2003, dated 2018).

Legend:
sheep [1] = assay: Intravenous and aerosolized UT-15 dose response on baseline hemodynamics (Example IV); type: in vivo; details: baseline conditions; for PCV relative to baseline: any dose; for CO relative to baseline: any delivery rate; for PSYS: any rate
Method: Six yearling sheep (3 males, 3 females; 21-37 kg) were fasted 18-24 hours and initially anesthetized with a short acting barbiturate (thiopental) to allow intubation of the sheep. Halothane gas anesthesia (1.5-2.5%) was then used for the surgical procedures. Via a left thoracotomy, a Transonic blood flow probe was placed around the main pulmonary artery, silastic catheters placed in the main pulmonary artery and left atrium. After approximately 7 days the sheep were reanesthetized and the left carotid artery cannulated, a Cordis Introducer Sheath inserted in the left jugular vein, and a tracheotomy made. The sheep were allowed to recover for another 3-5 days prior to experimentation. These sheep were used to allow measurement of pulmonary arterial pressure (PPA), left atrial pressure (PLA), central venous pressure (PCV), systemic arterial pressure (PSYS), heart rate (HR), and cardiac output (CO) after baseline measurements were made for a minimum of 30 minutes. Two separate experiments were conducted to determine the dose response effects of intravenously infused UT-15 on baseline hemodynamics and aerosolized UT-15 on baseline hemodynamics. For the infusion experimental protocol, after a 30 minute baseline was established, UT-15 was infused intravenously at 3 rates (250, 500 and 1000 ng per kg per min). In three sheep, the infusion rates lasted for 30 minutes each, and for the other three sheep, the infusions were for 60 minutes each. […] Again, three sheep were aerosolized for 30 minutes and the other three sheep were aerosolized for 60 minutes.

sheep [2] = assay: Intravenous and aerosolized UT-15 dose response during U44069 induced pulmonary hypertension (Example V); type: in vivo; details: for left atrial pressure: all three delivery rates
Text: Sheep were used as the animal model of choice for these experiments for a number of reasons. First is the docile nature of sheep. They will stand quietly in metabolic cages without having to utilize tranquilizing drugs, which have the potential to complicate experimental results. Second, sheep are large enough to allow direct measurement of CO, PPA, PLA, PCV, and PSYS. Sheep are also large enough to allow direct aerosolization of substances into the lung via trachoestomy thereby preventing swallowing of drugs and thus eliminating a possible secondary route of administration of UT-15. Third, sheep can tolerate a great amount of instrumentation with little or no discomfort. Fourth, sheep have been utilized for several years as an animal model of pulmonary arterial hypertension and thus, there is a great amount of historical data with which to compare the results. […] The reasons for using U44069 are that it is a very potent pulmonary vasoconstrictor, its characteristics are very similar to endogenously formed thromboxane A2, and it can be titrated to induce the desired degree of pulmonary vasoconstriction. U44069 was mixed with sterile normal saline immediately prior to being used and was protected from light by wrapping the solution with aluminum foil. The concentration of U44069 was adjusted such that a minimal flow rate of 0.8 ml per min was being infused into the sheep. This was done because more concentrated U44069 would have to be infused at very low rates and often causes “pulses” of U44069 due to the infusion characteristics of roller pumps. The U44069 pulses cause vasoconstriction “spikes” and thus would create induce a non-steady-state. Six yearling sheep (3 males, 3 females; 21-37 kg) were fasted 18-24 hours and initially anesthetized with a short acting barbiturate (thiopental) to allow intubation of the sheep. Halothane gas anesthesia (1.5-2.5%) was then used for the surgical procedures. Via a left thoracotomy, a Transonic blood flow probe was placed around the main pulmonary artery, silastic catheters placed in the main pulmonary artery and left atrium. After approximately 7 days the sheep were reanesthetized and the left carotid artery cannulated, a Cordis Introducer Sheath inserted in the left jugular vein, and a tracheotomy made. The sheep were allowed to recover for another 3-5 days prior to experimentation. These sheep were used to allow measurement of pulmonary arterial pressure (PPA), left atrial pressure (PLA), central venous pressure (PCV), systemic arterial pressure (PSYS), heart rate (HR), and cardiac output (CO) after baseline measurements were made for a minimum of 30 minutes. Two separate experiments were conducted to determine the dose response effects of intravenously infused UT-15 and aerosolized UT-15 during U44069 induced pulmonary hypertension. After a 30 minute baseline was established, U44069 was infused intravenously at a rate of 1 ng per kg per min. For the intravenous administration of UT-15 and after allowing the sheep to achieve a steady-state for 30-60 minutes, a dose-response to intravenous UT-15 was similar to that set forth in Example IV. For the aerosolized administration of UT-15 and after allowing the sheep to achieve a steady-state for 30-60 minutes, a dose-response to intravenous UT-15 was similar to that set forth in Example IV. In each experimental protocol, UT-15 was administered to three sheep for 30 minutes and to the other three sheep for 60 minutes.

Buerger's disease = assay: Case report: subcutaneous Treprostinil in severe Buerger's disease (Example IX); type: in vivo, human
Method: At this point, subcutaneous Treprostinil therapy was administered to the patient. Treprostinil was delivered chronically by continuous subcutaneous infusion using a pager-sized ambulatory infusion pump (Medtronic Minimed 407C, Minneapolis, Minn.)). […] The patient is now on a maintenance dose of Treprostinil 12 ng/kg/min from 9 PM-9 AM every seventh day, with no drug for the next 7 days.

[3] = system: large blood vessels of the lower limbs; details: patients with severe intermittent claudication; cited from earlier work
[4] = during U44069 infusion, aerosol
[5] = during U44069 infusion, aerosolized
[6] = during U44069 infusion, intravascular
[7] = during U44069 infusion, intravenous

In the case of `CCCCC[C@H](O)CC[C@@H]1[C@H]2Cc3cccc(OCC(=O)O)c3C[C@H]2C[C@H]1O` [UT-15, 9-deoxy-2′,9-alpha-methano-3-oxa-4,5,6-trinor-3,7-(1′,3′-interphenylene)-13,14-dihydro-prostaglandin F1], the “PCV relative to baseline” value (sheep [1]; aerosol) is reported as “no statistical difference”, the “PLA relative to baseline” value (sheep [1]; aerosolized (mean values increased)) is reported as “neither intravenous nor aerosolized UT-15 caused PLA to significantly change” and the heart rate (sheep [1]; aerosolized, 3 rates) is reported as “no effect”. The “pulmonary vascular driving pressure (PPA minus PLA) change from baseline” value (sheep [1]; aerosolized, 250, 500, and 100 ng per kg per min) was “significant”, the PVR (sheep [1]; aerosolized, all 3 delivery rates) was “significant decrease” and the “CO relative to baseline” value (sheep [1]; aerosolized) was “no significant changes”. The PSYS (sheep [1]; aerosolized) was “no significant effect”, the “PPA relative to baseline” value (sheep [1]; aerosolized, not statistically different) was “general trend for PPA to decrease” and the PVR (sheep [1]; intravenous) was “no significant effect”. For the same compound, the heart rate (sheep [1]; intravenous 250, 500 and 1000 ng per kg per min) was “significantly increased”, the “PLA relative to baseline” value (sheep [1]; intravenous (mean values decreased)) was “neither intravenous nor aerosolized UT-15 caused PLA to significantly change” and the “CO relative to baseline” value (sheep [1]; intravenous) was “no significant changes”. For the same compound, the “PCV relative to baseline” value (sheep [1]; intravenous) was “no statistical difference”, the PSYS (sheep [1]; intravenous) was “no significant effect” and the “PPA relative to baseline” value (sheep [1]; intravenous, same as PCV (no statistical difference)) was “The same effects were also observed”. The cardiac output (sheep [2]; [4]) was “no effect”, the “time at which UT-15 began to attenuate the increase in PVR” value (sheep [2]; [4]) was 4 to 5 min and the left atrial pressure (sheep [2]; [4]) was “increased above baseline”. For the same compound, the heart rate (sheep [2]; [5]) was “no effect”, the “off response (PVR)” value (sheep [2]; [5]) was 43 min and the systemic arterial pressure (sheep [2]; [5]) was “no statistical differences”. The PPA (sheep [2]; during U44069 infusion, aerosolized, 500 and 1000 ng per kg per min) was “back to normal values”, the “PVR relative to baseline PVR” value (sheep [2]; during U44069 infusion, aerosolized, any of the three delivery rates) was “no significant difference” and the “PPA relative to U44069 value” (sheep [2]; [6]) was “decrease significantly”. The “pulmonary vascular driving pressure (PPA-PLA)” value (sheep [2]; [6]) was “unchanged”, the “off response (PVR)” value (sheep [2]; [7]) was 12 min and the systemic arterial pressure (sheep [2]; [7]) was “no statistical differences”. For the same compound, the “time at which UT-15 began to attenuate the increase in PVR” value (sheep [2]; [7]) was 4 to 5 min, the central venous pressure (sheep [2]; during U44069 infusion, intravenous, 500 and 1000 ng per kg per min) was “different from the U44069 values” and the heart rate (sheep [2]; during U44069 infusion, intravenous, 500 and 1000 ng per kg per min different from U44069 values) was “increase above the values during U44069 conditions”. The cardiac output (sheep [2]; during U44069 infusion, intravenous, significant at 500 and 100 ng per kg per min) was “dose-response increase”, the left atrial pressure (sheep [2]; during U44069 infusion, intravenously infused) was “significant decrease from the U44069 value” and the “U44069-induced increase in PVR” value (sheep [2]; intravenously infused, 500 and 1000 ng per kg per min) was “significantly attenuated”. For the same compound, the “dose limiting side effects” value (Buerger's disease; in vivo) was “diarrhea and jaw pain”, the Doppler studies (Buerger's disease; one patient) was “improvement in pulse volume recording wave form” and the “return of ischemic symptoms after attempts to discontinue” value (Buerger's disease; one patient) was at most 1 week. The maximum tolerated dose (Buerger's disease; one patient, continuous subcutaneous infusion) was 12.5 ng/kg/min, the “ulcer on right middle finger” value (Buerger's disease; one patient, maintenance 12 ng/kg/min) was “complete healing” and the “patient-reported comfort and activities of daily living” value (Buerger's disease; one patient, sc infusion 12.5 ng/kg/min) was “improved comfort and increased ability to participate in activities of daily living”. For the same compound, the “blood flow in large blood vessels of the lower limbs” value [3] was “increase in blood flow”.
